For test [1], the target named is KDR (h) (VEGFR2) (Homo sapiens (Human), UniProt P35968). Briefly: KDR (VEGFR2) (enzymatic assay), TR-FRET. It is filed as biochemical. The conditions noted are these: 3 μM ATP; read-out: VEGFR KDR pIC50 (converted). A general note: In TR-FRET formats the signal depends on donor and acceptor labels being close together.
Test [2] has as its system Ba/F3-FGFR1-transfected cells. Nature of the test: cells. The conditions noted are these: read-out: BAF3-FGFR1 (MIN IL3 pIC50) (converted).
For test [3], the system named is Ba/F3-FGFR4-transfected cells. Nature of the test: cells. The note with it: read-out: BAF3-FGFR4 (pIC50) (converted).
The subject of test [4] is Ba/F3-KDR-transfected cells. Nature of the test: cells. The conditions noted are these: read-out: BAF3-KDR (MIN IL3 pIC50) (converted).

KDR (h) (VEGFR2), sequence (P35968 20-1356): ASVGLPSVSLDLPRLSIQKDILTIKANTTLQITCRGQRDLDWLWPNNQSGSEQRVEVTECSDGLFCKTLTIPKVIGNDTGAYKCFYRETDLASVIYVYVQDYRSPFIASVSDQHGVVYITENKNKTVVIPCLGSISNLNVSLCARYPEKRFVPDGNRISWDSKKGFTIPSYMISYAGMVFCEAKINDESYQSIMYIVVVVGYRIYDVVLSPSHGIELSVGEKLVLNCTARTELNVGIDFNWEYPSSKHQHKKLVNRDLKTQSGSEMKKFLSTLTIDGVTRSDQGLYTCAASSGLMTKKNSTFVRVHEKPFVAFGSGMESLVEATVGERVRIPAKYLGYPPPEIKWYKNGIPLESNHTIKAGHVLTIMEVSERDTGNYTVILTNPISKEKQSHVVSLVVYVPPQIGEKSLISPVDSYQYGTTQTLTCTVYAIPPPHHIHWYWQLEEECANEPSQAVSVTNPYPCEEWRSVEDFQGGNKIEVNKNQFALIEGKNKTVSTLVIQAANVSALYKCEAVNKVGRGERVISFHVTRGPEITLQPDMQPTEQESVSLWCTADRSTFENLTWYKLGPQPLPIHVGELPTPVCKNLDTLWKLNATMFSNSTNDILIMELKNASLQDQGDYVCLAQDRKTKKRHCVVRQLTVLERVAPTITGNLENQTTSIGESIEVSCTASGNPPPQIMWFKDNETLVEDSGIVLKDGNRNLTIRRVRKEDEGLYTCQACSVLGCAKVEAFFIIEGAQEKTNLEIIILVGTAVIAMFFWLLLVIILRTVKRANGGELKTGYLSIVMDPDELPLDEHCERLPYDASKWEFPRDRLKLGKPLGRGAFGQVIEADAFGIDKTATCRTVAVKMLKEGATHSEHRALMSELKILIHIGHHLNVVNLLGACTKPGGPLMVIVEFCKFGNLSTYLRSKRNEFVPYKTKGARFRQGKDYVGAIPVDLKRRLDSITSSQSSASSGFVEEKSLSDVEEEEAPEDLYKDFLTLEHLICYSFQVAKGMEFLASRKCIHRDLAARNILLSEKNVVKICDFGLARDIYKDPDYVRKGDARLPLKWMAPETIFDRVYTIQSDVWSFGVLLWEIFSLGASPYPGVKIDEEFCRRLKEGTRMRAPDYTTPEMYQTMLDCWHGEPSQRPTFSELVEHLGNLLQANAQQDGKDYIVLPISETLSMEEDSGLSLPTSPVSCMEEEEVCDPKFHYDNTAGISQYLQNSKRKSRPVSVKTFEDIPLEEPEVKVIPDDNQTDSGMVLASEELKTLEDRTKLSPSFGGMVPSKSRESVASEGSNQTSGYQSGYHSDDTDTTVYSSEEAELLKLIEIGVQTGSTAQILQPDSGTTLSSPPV

For the molecule `COc1cc(OC)c(F)c(N(Cc2nccn2S(=O)(=O)N(C)C)c2ncc3ncc(-c4cnn(C)c4)nc3n2)c1F` [Compound 1], the IC50 in test [1] was 100 nM.

Take `COc1cc(OC)c(F)c(N(Cc2ncc[nH]2)c2ncc3ncc(-c4cnn(C)c4)nc3n2)c1F` [Compound 2]: the IC50 in test [1] was 25.1 nM; in test [2] it was 6.31 nM; in test [3], 25.1 nM.

For `COc1cc(OC)cc(N(CCO)c2ncc3ncc(-c4cnn(C)c4)nc3n2)c1` [Compound 3], the IC50 is over 1000 nM in test [1] and over 10000 nM in test [4].

On to `COc1cc(OC)cc(N(CCO)c2ncc3ncc(-c4ccccc4)nc3n2)c1` [Compound 4], for which, in test [4], the IC50 is over 10000 nM.

Turning to `COc1cc(OC)cc(N(CC2CC2)c2ncc3ncc(-c4ccccc4)nc3n2)c1` [Compound 7], the figures for the IC50 in test [1] and in test [4] were over 1000 nM and over 10000 nM, respectively.

In the case of `COc1cc(OC)c(F)c(N(C[C@@H]2CCC(=O)N2)c2ncc3ncc(-c4cnn(C)c4)nc3n2)c1F` [Compound 8], the figures for the IC50 in test [1] and in test [4] were 794 nM and over 10000 nM, respectively.

For the molecule `CNCCN(c1ncc2ncc(-c3cnn(C)c3)nc2n1)c1c(F)c(OC)cc(OC)c1F` [Compound 9], the IC50 is 398 nM in test [1] and 2510 nM in test [4].

Regarding `COc1cc(OC)c(F)c(N(C[C@H]2CCC(=O)N2)c2ncc3ncc(-c4cnn(C)c4)nc3n2)c1` [Compound 10], the IC50 in test [1] was 1000 nM.

In the case of `COc1cc(OC)c(F)c(N(C[C@@H]2CCC(=O)N2)c2ncc3ncc(-c4cnn(C)c4)nc3n2)c1` [Compound 11], the IC50 in test [1] is over 1000 nM.

Take `COc1cc(OC)c(F)c(N(Cc2ncc[nH]2)c2ncc3ncc(-c4cnn(C)c4)nc3n2)c1` [Compound 13]: the IC50 in test [1] is 251 nM.
